Data from patent US11827543B2, “Method for continuous supply of superoxide-containing peracetate oxidant solution” (Clean Chemistry, Inc., priority 2014, dated 2023).
Blank lines part the entries; values can stand above or below the molecule they belong to.

Tests used:
bacteria = assay: ATP concentration (LuminUltra metabolic ATP measurement) in oxidant-treated water; format: cell-based; conditions: produced water, Example 18, 0.30 mmol/L oxidant
[1] = ORP (oxidative-reductive potential) measurement of solutions and treated water; format: physicochemical; conditions: for ORP (mV vs SHE): early flowback water, Example 19, 1.7 mmol/L oxidant; for ORP: 29 mM, pH 7
Method: Example 9: Hydrogen Peroxide Residual Concentration and interference. A sodium peracetate oxidant solution was produced according to the procedure in Example 4 and diluted to 2800 mg/L (28.5 mmol/L) with either distilled water, for clean water conditions, or tap water containing about 0.18 mg/L copper, which served as an activation catalyst. Some samples were spiked with 30 or 60 mg/L (0.88 or 1.76 mmol/L, respectively) hydrogen peroxide from a 1000 mg/L stock solution. […] The temperature of the samples was maintained at 25±2° C. with a heated water bath. The ORP response was monitored over time to observe the impact of adding low concentrations of hydrogen peroxide. The pH was measured using a high sodium electrode (Oakton model 35805-05) with three point calibration and automatic temperature correction. The ORP (oxidative-reductive potential) of solutions was measured using an Oakton model 35805-15 ORP probe calibrated to the standard hydrogen electrode (SHE) using Thermo/Orion ORP standard 967901.
(§1) Water parameters were measured by a variety of methods. The pH was measured using a high sodium electrode (Oakton model 35805-05) with three point calibration and automatic temperature correction. The ORP (oxidative-reductive potential) of solutions was measured using an Oakton model 35805-15 ORP probe calibrated to the standard hydrogen electrode (SHE) using Thermo/Orion ORP standard 967901. Sodium ion concentration was measured using a Cole-Parmer ion selective electrode, EW-27504-30, with two point calibration of a sodium standard solution of NaCl. Chloride ion concentration was measured using a Cole-Parmer ion selective electrode, SC-27504-08, with two point calibration of a chloride standard solution of NaCl. All measurements using HACH methods were measured using a HACH DR900 colorimeter. Calcium, magnesium and total hardness concentrations were measured using HACH method 8030. Sulfate concentration was measured using HACH method 10248. Aluminum concentration was measured using HACH method 8012. Iron concentration was measured using HACH method 10249 modified with a longer reaction time to minimize interferences from organic impurities. Total suspended solids (TSS) concentration was measured using HACH method 8006 modified for smaller volumes. Turbidity was measured using HACH method 8237. ATP (adenosine triphosphate) concentration was measured using the LuminUltra 2nd Generation metabolic ATP measurement technology with the LuminUltra Quench Gone-Organic Modified sampling method, a PhotonMaster Luminometer and LumiCalc software. Acid producing bacteria (ABP) and sulfate reducing bacteria (SRB) cell culture concentrations were measured with standard 1 mL serial dilutions using Intertek APB and SRB culture media, 1% salinity.

pH of treated water = format: physicochemical
Method: as §1

[2] = Chlorine dioxide stock solution concentration over time (HACH DPD method); format: physicochemical; conditions: 2800 mg/L stock solution, room temperature, 7 days
Method: Chlorine dioxide stock solution preparation: One AQUA-Tab 20 G chlorine dioxide tablet (Beckart Environmental, Inc.) was dissolved in 32 oz (946 mL) of distilled water in a closed polyethylene container according to the product instructions. The yellow solution was allowed to sit for at least 1 hour before use. The chlorine dioxide concentration was measured before use using the HACH DPD method no. 10126 after diluting 0.330 mL of the prepared chlorine dioxide stock solution with distilled water to 200 mL in a volumetric flask. The initial chlorine dioxide concentration of the stock solution was measured to be 2800 mg/L. The concentration decreased slowly over time at room temperature, e.g., 6.4% decrease in 7 days.

[3] = produced water, Example 18, 0.30 mmol/L oxidant

SMILES: [O][Cl+][O-] [chlorine dioxide, reference compound]
ATP (pg/mL), at 30 min CT (bacteria): 7.7 pg/mL
ATP reduction at 30 min CT (bacteria): 94.3%
ATP (pg/mL), at 15 min CT (bacteria; untreated 135): 10.3 pg/mL
ORP (mV vs SHE) ([1]; contact time 3 minutes): 646 mV vs SHE
ORP (mV vs SHE) ([1]; contact time 13 minutes): 580 mV vs SHE
ORP (mV vs SHE) ([1]; contact time 35 minutes): 496 mV vs SHE
ORP (mV vs SHE) ([1]; contact time 90 minutes): 456 mV vs SHE
ORP (mV vs SHE), maximum [1, 3]: 818 mV vs SHE
ORP after slow decrease ([1]; produced water, Example 18, 0.30 mmol/L, in the following 17 minutes): 785 mV vs SHE
pH (pH of treated water; early flowback water, Example 19, 1.7 mmol/L oxidant, contact time 3 minutes): 6.33
pH (pH of treated water; early flowback water, Example 19, 1.7 mmol/L oxidant, contact time 13 minutes): 6.32
pH (pH of treated water; early flowback water, Example 19, 1.7 mmol/L oxidant, contact time 35 minutes): 6.32
pH (pH of treated water; early flowback water, Example 19, 1.7 mmol/L oxidant, contact time 90 minutes): 6.36
pH (pH of treated water; [3]): 5.6
decrease of concentration of stock solution [2]: 6.4%

ORP [1]: about 0.5 V (SHE)
SMILES: OO [hydrogen peroxide, reference compound]

ORP [1]: over 1.1 V (SHE)
SMILES: OCl [hypochlorous acid, reference compound]

ORP (constant) ([1]; diluted, pH 10.00±0.02, 25±2 °C): about 914 mV vs SHE
SMILES: OCl [sodium hypochlorite, reference compound]
